Each block holds one molecule with its values, some of them ahead of it.
Assay: photoluminescence quantum yield (fraction); solvent given as SMILES

Compound: N#C/C(=C\c1ccc(-c2ccncc2)cc1)c1ccc(-c2ccncc2)cc1
photoluminescence quantum yield (in ClCCl): 0.002

Compound: CCCCCCCCCCCCN1C(=O)c2c(c3ccc4cc(-c5ccc(-c6ccccc6)cc5)c(OC)cc4c3c3c2ccc2cc(-c4ccc(-c5ccccc5)cc4)c(OC)cc23)C1=O
photoluminescence quantum yield (in ClCCl): 0.17

Compound: COCCC1=Cc2nc1ccc1[nH]c(cc1CCOC)c1nc(c(NC(=O)CCCC(=O)O)cc3[nH]c2cc3CCOC)C(CCOC)=C1
photoluminescence quantum yield (in Cc1ccccc1): 0.15

Compound: CC1(C)c2ccccc2N(c2ccc(-c3nc(C#N)c(C#N)nc3-c3ccc(N4c5ccccc5C(C)(C)c5ccccc54)cc3)cc2)c2ccccc21
photoluminescence quantum yield (in Cc1ccccc1): 0.2
photoluminescence quantum yield (in c1cc(-c2cccc(-n3c4ccccc4c4ccccc43)c2)cc(-n2c3ccccc3c3ccccc32)c1): 0.67

Compound: CCCN1C(=O)C(=CC=CC=C2Oc3ccccc3N2CCCS(=O)(=O)[O-])C(=O)N(CCC)C1=S
photoluminescence quantum yield (in CC(C)=O): 0.41
photoluminescence quantum yield (in CCCCO): 0.37
photoluminescence quantum yield (in CCO): 0.25
photoluminescence quantum yield (in CO): 0.17
photoluminescence quantum yield (in ClC(Cl)Cl): 0.32
photoluminescence quantum yield (in O): 0.04

Compound: COCCOCCOCCOCC(COCCOCCOCCOC)Oc1cc(/C=C/c2ccc(/C=C(\C#N)c3ccccc3)cc2)c(OC(COCCOCCOCCOC)COCCOCCOCCOC)cc1/C=C/c1ccc(/C=C(\C#N)c2ccccc2)cc1
photoluminescence quantum yield (in ClCCl): 0.72

Compound: Cc1ccc2c(c1)c1cc(C)ccc1n2-c1c(C#N)c(-n2c3ccc(C)cc3c3cc(C)ccc32)c(-n2c3ccc(C)cc3c3cc(C)ccc32)c(C#N)c1-n1c2ccc(C)cc2c2cc(C)ccc21
photoluminescence quantum yield (in Cc1ccccc1): 0.474

Compound: COc1cc2c(cc1OC)C1=C[C@H](c3ccccc3)C3(C(C(=O)O[C@@H]4C[C@H]5CC[C@@H]4C5)=C(C(=O)O[C@H]4C[C@@H]5CC[C@H]4C5)N1CC2)c1ccccc1-c1ccccc13
photoluminescence quantum yield (in ClCCl): 0.00157

Compound: CCCc1ccc(C#Cc2cc(C#Cc3ccc(N(C)C)cc3)c3ccc4c(C#Cc5ccc(N(C)C)cc5)cc(C#Cc5ccc(N(C)C)cc5)c5ccc2c3c54)cc1
photoluminescence quantum yield (in ClCCl): 0.47

Compound: [O-][n+]1c(/C=C/c2ccc(/C=C/c3ccccc3)cc2)nc(N2CCOCC2)c2c1CCCC2
photoluminescence quantum yield (in ClCCl): 0.04

Compound: CC1=N/C(=C\c2cccc(N(C)C)c2)C(=O)N1C
photoluminescence quantum yield (in C1CCOC1): 0.14
photoluminescence quantum yield (in CC#N): 0.05
photoluminescence quantum yield (in CCCCCC): 0.46

Compound: CCC1(CC)c2cc(Br)ccc2-c2c1c1c(c3c2C(CC)(CC)c2cc(-c4cccs4)ccc2-3)C(CC)(CC)c2cc(Br)ccc2-1
photoluminescence quantum yield (in C1CCOC1): 0.32

Compound: COc1cc2c(cc1-c1ccc(C#N)cc1)Cc1c3c(c4c(c1-2)-c1cc(OC)c(-c2ccc(C#N)cc2)cc1C4)C(=O)N(CCC(C)C)C3=O
photoluminescence quantum yield (in C1CCOC1): 0.51

Compound: CCCCCCCCn1c2ccc(/C=C/c3ccc(N(c4ccccc4)c4ccccc4)cc3)cc2c2cc3c(cc21)c1cc(/C=C/c2ccc(N(c4ccccc4)c4ccccc4)cc2)ccc1n3CCCCCCCC
photoluminescence quantum yield (in Cc1ccccc1): 0.6

Compound: COC(=O)c1noc(-c2ccccc2)c1Cl
photoluminescence quantum yield (in C1CCCCC1): 0.368

Compound: C1=Cc2ccccc2C(=Cc2ccc(-c3ccc(C=C4c5ccccc5-c5ccccc54)cc3)cc2)c2ccccc21
photoluminescence quantum yield (in C1CCOC1): 0.00016

Compound: Cc1cc(-c2ccc(-n3c4ccccc4c4ccccc43)cc2)nc(-c2ccc(-c3ccccc3)cc2)n1
photoluminescence quantum yield (in C1CCOC1): 0.62
photoluminescence quantum yield (in CN(C)C=O): 0.59
photoluminescence quantum yield (in Cc1ccccc1): 0.52
photoluminescence quantum yield (in ClC(Cl)Cl): 0.75

Compound: N#Cc1ccc(/C=C/C=C/C2=NC3C(=O)NC(N)=NC3N2[C@H]2C[C@H](O)[C@@H](CO)O2)cc1 (some centres not stated)
photoluminescence quantum yield (in C1COCCO1): 0.75
photoluminescence quantum yield (in CC#N): 0.47
photoluminescence quantum yield (in CO): 0.32

Compound: N#Cc1ccc(/C=C/C(F)(F)F)c(N)c1
photoluminescence quantum yield (in C1CCOC1): 0.82

Compound: [C-]#[N+]c1ccc(-c2ccc(N(C)C)cc2)cc1
photoluminescence quantum yield (in C1CCCCC1): 0.82
photoluminescence quantum yield (in C1CCOC1): 0.85
photoluminescence quantum yield (in C1COCCO1): 0.74
photoluminescence quantum yield (in CC#N): 0.89
photoluminescence quantum yield (in CC(C)=O): 0.54
photoluminescence quantum yield (in CCCCCC): 0.66
photoluminescence quantum yield (in CCOC(C)=O): 0.54
photoluminescence quantum yield (in CN(C)C=O): 0.86
photoluminescence quantum yield (in CO): 0.15
photoluminescence quantum yield (in CS(C)=O): 0.76
photoluminescence quantum yield (in Cc1ccccc1): 0.62
photoluminescence quantum yield (in ClC(Cl)Cl): 0.19
photoluminescence quantum yield (in ClCCl): 0.8
photoluminescence quantum yield (in O): 0.016
photoluminescence quantum yield (in c1ccncc1): 0.63

Compound: c1ccc(C(=C(c2ccccc2)c2ccc(-c3nc4c(-c5ccc(C(=C(c6ccccc6)c6ccccc6)c6ccccc6)cc5)sc(-c5ccc(C(=C(c6ccccc6)c6ccccc6)c6ccccc6)cc5)c4nc3-c3ccc(C(=C(c4ccccc4)c4ccccc4)c4ccccc4)cc3)cc2)c2ccccc2)cc1
photoluminescence quantum yield (in Cc1ccccc1): 0.267
photoluminescence quantum yield (in ClCCl): 0.109

Compound: N#Cc1ccc(C[C@H](N)C(=O)O)cc1
photoluminescence quantum yield (in C1CCOC1): 0.031
photoluminescence quantum yield (in CC#N): 0.026
photoluminescence quantum yield (in CC(C)O): 0.071
photoluminescence quantum yield (in CC(O)CO): 0.1
photoluminescence quantum yield (in CCCCO): 0.079
photoluminescence quantum yield (in CCCO): 0.074
photoluminescence quantum yield (in CCO): 0.034
photoluminescence quantum yield (in CO): 0.076
photoluminescence quantum yield (in NC=O): 0.083
photoluminescence quantum yield (in O): 0.11
photoluminescence quantum yield (in O=CO): 0.17

Compound: C/C=C/c1ccc(OC)c(OC)c1
photoluminescence quantum yield (in CC#N): 0.28
photoluminescence quantum yield (in CCCCCC): 0.35

Compound: CCCCCCCCc1ccc(-n2c3c(c4c2c2c(n4-c4ccc(CCCCCCCC)cc4)-c4ccccc4NB2c2ccccc2)B(c2ccccc2)Nc2ccccc2-3)cc1
photoluminescence quantum yield (in Cc1ccccc1): 0.7

Compound: CCN(CC)c1ccc2ccc(=O)oc2c1
photoluminescence quantum yield (in CC(C)=O): 0.55
photoluminescence quantum yield (in CCCCCC): 0.85
photoluminescence quantum yield (in CCCCCCC): 0.85
photoluminescence quantum yield (in CCCCO): 0.47
photoluminescence quantum yield (in CCCO): 0.52
photoluminescence quantum yield (in CCO): 0.39
photoluminescence quantum yield (in CCOCC): 0.8
photoluminescence quantum yield (in CN(C)C=O): 0.56
photoluminescence quantum yield (in CO): 0.27
photoluminescence quantum yield (in Cc1ccccc1): 0.83
photoluminescence quantum yield (in ClC(Cl)Cl): 0.62
photoluminescence quantum yield (in ClCCl): 0.9
photoluminescence quantum yield (in OCCO): 0.25
photoluminescence quantum yield (in c1ccccc1): 0.83

Compound: CCCCCCN1C(=O)c2cc(-c3ccc(-n4c5ccccc5c5ccccc54)cc3)c(-c3ccc(-n4c5ccccc5c5ccccc54)cc3)cc2C1=O
photoluminescence quantum yield (in ClC(Cl)Cl): 0.78
photoluminescence quantum yield (in c1ccc2c(c1)c1ccccc1n2-c1ccc(-c2ccc(-n3c4ccccc4c4ccccc43)cc2)cc1): 0.7

Compound: CN1/C(=C/C=C(/C=C/c2sc3ccccc3[n+]2C)c2ccc(F)cc2)Sc2ccccc21
photoluminescence quantum yield (in CCO): 0.1
photoluminescence quantum yield (in CO): 0.09
photoluminescence quantum yield (in CS(C)=O): 0.14

Compound: CC1=CC(C)=[N+]2C1=C(c1c3ccccc3c(C)c3ccccc13)c1c(C)cc(C)n1[B-]2(F)F
photoluminescence quantum yield (in CC#N): 0.002
photoluminescence quantum yield (in CCCCCC): 0.91
photoluminescence quantum yield (in CCO): 0.005
photoluminescence quantum yield (in CN(C)C=O): 0.003
photoluminescence quantum yield (in Cc1ccccc1): 0.95
photoluminescence quantum yield (in ClCCl): 0.011

Compound: c1ccc(B2Nc3cc4c(cc3-c3sc5ccccc5c32)NB(c2ccccc2)c2c-4sc3ccccc23)cc1
photoluminescence quantum yield (in ClCCl): 0.27

Compound: CCC1(CC)c2cc(C=C(C#N)C#N)ccc2-c2ccc(N(C)C)cc21
photoluminescence quantum yield (in C1CCCCC1): 0.04
photoluminescence quantum yield (in CC#N): 0.26
photoluminescence quantum yield (in CCO): 0.18
photoluminescence quantum yield (in CCOCC): 0.39
photoluminescence quantum yield (in CS(C)=O): 0.24
photoluminescence quantum yield (in ClCCl): 0.62
photoluminescence quantum yield (in c1ccccc1): 0.22

Compound: CCC1=C(C2=C(C3=C(CC)S(=O)(=O)c4cc(-c5ccc(C)s5)ccc43)C(F)(F)C(F)(F)C2(F)F)c2ccc(-c3ccc(C)s3)cc2S1(=O)=O
photoluminescence quantum yield (in C1COCCO1): 0

Continued, values first:

photoluminescence quantum yield (in ClCCl): 0.79
Compound: c1cnc(-c2c3ccccc3c(-c3ncccn3)c3ccccc23)nc1

photoluminescence quantum yield (in C1COCCO1): 0.62
photoluminescence quantum yield (in CC#N): 0.43
photoluminescence quantum yield (in CCCCOCCCC): 0.41
photoluminescence quantum yield (in CCOC(C)=O): 0.3
Compound: c1ccc(Nc2nc(Nc3ccccc3)nc(Nc3ccc4cc5ccccc5cc4c3)n2)cc1

photoluminescence quantum yield (in CCO): 0.033
photoluminescence quantum yield (in ClCCl): 0.87
Compound: CCN(CC)c1ccc2cc(C#N)/c(=N\C(=O)c3ccccc3)oc2c1

photoluminescence quantum yield (in CS(C)=O): 0.302
Compound: CCN1\C(=C/C=C/C=C/C2=[N+](CC)c3ccc4ccccc4c3C2(C)C)C(C)(C)c2c1ccc1ccccc21

photoluminescence quantum yield (in ClCCl): 0.35
Compound: Fc1ccc(C2=C(c3ccc(F)cc3)c3cccc4c3c(cc3nc5ccccc5nc34)O2)cc1

photoluminescence quantum yield (in ClCCl): 0.005
Compound: CC(=O)c1c(N[C@@H](Cc2ccc(O)cc2)C(=O)O)c2ccc(N(C)C)cc2oc1=O

photoluminescence quantum yield (in ClCCl): 0.8
Compound: Fc1ccc(N(c2ccccc2)c2ccc3ccc4c(N(c5ccccc5)c5ccc(F)cc5)ccc5ccc2c3c54)cc1

photoluminescence quantum yield (in ClCCl): 0.39
Compound: COc1ccc(C2=Nc3cccc4[n+]3[B-](F)(O2)OC(c2ccc(OC)cc2)=N4)cc1

photoluminescence quantum yield (in C1CCCCC1): 0.55
photoluminescence quantum yield (in CC#N): 0.38
photoluminescence quantum yield (in CCO): 0.41
photoluminescence quantum yield (in CCOC(C)=O): 0.31
Compound: COC(=O)c1nc(-c2ccc(OC)cc2)oc1C

photoluminescence quantum yield (in ClCCl): 0.8
Compound: CC(C)(C)c1ccc2c(c1)c1cc(C(C)(C)C)ccc1n2-c1ccc(C#Cc2ccccc2)cc1

photoluminescence quantum yield (in CO): 0.93
Compound: Oc1cc2ccc3cc(O)cc4ccc(c1)c2c34

photoluminescence quantum yield (in CCO): 0.95
photoluminescence quantum yield (in ClCCl): 1
Compound: Cc1ccccc1-c1c2ccc(=[N+]3CCCC3)cc-2oc2cc(N3CCCC3)ccc12

photoluminescence quantum yield (in C1CCOC1): 0.011
Compound: CCOC(=O)c1ccc(C2=C(c3ccccc3)c3sc4ccccc4[n+]3[B-](F)(F)O2)cc1

photoluminescence quantum yield (in C1CCOC1): 0.062
photoluminescence quantum yield (in C1COCCO1): 0.028
photoluminescence quantum yield (in CC#N): 0.082
photoluminescence quantum yield (in CCCCCCC): 0.05
photoluminescence quantum yield (in CCO): 0.067
photoluminescence quantum yield (in CO): 0.066
photoluminescence quantum yield (in O): 0.38
Compound: CC1(C)CC(=O)C2=C(C1)Oc1ccc3cc(O)ccc3c1C2c1ccccn1 (configuration not stated)

photoluminescence quantum yield (in ClC(Cl)Cl): 0.055
Compound: FC(F)(F)c1ccc2oc3nc4oc5ccc(N6c7ccccc7Oc7ccccc76)cc5c4cc3c2c1

photoluminescence quantum yield (in CCO): 0.01
Compound: C#Cc1ccc2cc3c(C)cc(=O)oc3cc2c1

photoluminescence quantum yield (in C1COCCO1): 0.108
Compound: COc1ccc(C2=C/C(=C\c3ccccc3)C(=O)N2)cc1OC

photoluminescence quantum yield (in ClCCl): 0.08
Compound: CCN(CC)c1ccc2c(-c3ccccc3C(=O)O)c3c([o+]c2c1)/C(=C/c1ccc2c(c1)c1ccccc1n2CC)CCC3

photoluminescence quantum yield (in CCCCCC): 0.55
photoluminescence quantum yield (in CO): 0.67
photoluminescence quantum yield (in ClCCl): 0.61
Compound: CCCCc1cc(CCCC)c2ccc3c(CCCC)cc(CCCC)c4ccc1c2c43

Source: the Deep4Chem optical property database
